Publication PMC7708037, “Targeting OGG1 arrests cancer cell proliferation by inducing replication stress” (Nucleic Acids Research, 2020)
Each block holds one compound with its values, some of them ahead of it.

Assays:
OGG1 enzyme = OGG1 enzyme (Homo sapiens, UniProt O15527); experiment: Cellular thermal shift assay in excised xenograft tumors; format: in vivo; set-up: endogenous in cells; host or cells: A3 T-cell acute lymphoblastic leukemia cells (luciferase-transfected) grown as subcutaneous xenograft tumours in NOD-SCID mice; details: A3 xenograft tumors excised following termination
OGG1 enzyme, sequence (O15527 whole entry): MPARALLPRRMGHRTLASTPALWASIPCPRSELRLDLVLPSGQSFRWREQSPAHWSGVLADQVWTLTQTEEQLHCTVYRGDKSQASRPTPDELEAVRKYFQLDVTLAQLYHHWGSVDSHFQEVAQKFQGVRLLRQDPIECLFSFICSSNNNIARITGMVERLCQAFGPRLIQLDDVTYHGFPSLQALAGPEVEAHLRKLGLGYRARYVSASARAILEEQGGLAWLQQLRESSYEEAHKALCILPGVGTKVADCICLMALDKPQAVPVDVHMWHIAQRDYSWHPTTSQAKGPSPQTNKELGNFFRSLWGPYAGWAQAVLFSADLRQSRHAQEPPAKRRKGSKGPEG
Experimental: Animal experiments were conducted as per the European directive, ethical guideline and regulations of the regional animal ethical committee Stockholm 2010/63 (N8914). Upon arrival to animal facility, animals were acclimatized in the animal house for a week with ad lib food and water, with a 12 h light cycle and the temperature and humidity set according to laboratory animal guidelines and regulations. For the xenograft experiment involving inducible shRNA, 1 × 10^7 non-targeting luciferase transfected A3 cells in 50% matrigel in PBS were injected into flank region of BALB/c nude mice. Later, mice from non-targeting and shRNA groups were randomly divided into two groups containing eight mice per group. […] Tumor volume was measured using calipers (length × 0.52 × width × width) and bioluminescence images were taken using an IVIS spectrum in vivo imaging system (Perkin-Elmer) after intraperitoneal injection of D-luciferin (150 mg/kg in PBS). […] Following lysis by three freeze-thaw cycles, samples were centrifuged at 20 000 × g for 30 min, and OGG1 in the supernatant was detected by immunoblotting. […]
Figure 7. […] Tumors were excised following termination, and TH5487 target engagement was analyzed by cellular thermal shift assay, using an antibody specific for the human OGG1 protein. […]

NB-4 = experiment: Resazurin viability, 5 days; format: cell-based, human; details: NB-4, C, Acute promyelocytic leukemia
Experimental: (§1) Cells were seeded in 96- or 384-well plates and incubated for 3 days for combination experiments or 5 days for single-drug exposure experiments. Resazurin (R7017, SigmaAldrich) was added to a final concentration of 0.01 mg/ml resazurin and fluorescence was measured at ex530/em590 after incubation for 2, 4 or 6 h. Curves were fitted using XLfit software (IDBS) or Prism 8.0 (Graphpad Software), and EC50 values were determined.
(§2) Supplementary Table S1: Effect of OGG1 inhibitors on cancer and non-transformed cell lines.
(§3) Cell lines were incubated with a dilution series of the indicated compounds for 5 days, and viability
(§4) assessed with resazurin. EC50-values were calculated based on the resulting dose -response curves.
(§5) The number of independent experiments is indicated for each value.
(§6) C=cancer;N=non- Disease EC50 n= EC50 n= EC50 n=
(§7) transformed (µM) (µM) (µM) […]

Hec59+Chr2 = experiment: Resazurin viability, 5 days; format: cell-based, human; details: Hec59+Chr2, C, Endometrioid adenocarcinoma with WT Chr2
Experimental: as §1, §2, §3, §4, §5, §6, §7

T98G = experiment: Resazurin viability, 5 days; format: cell-based, human; details: C, Glioblastoma
Experimental: as §1, §2, §3, §4, §5, §6

HCT116+Chr3 = experiment: Resazurin viability, 5 days; format: cell-based, human; details: HCT116+Chr3, C, Colorectal carcinoma with WT Chr3
Experimental: as §1, §2, §3, §4, §5, §6

CCD841 = experiment: Resazurin viability, 5 days; format: cell-based, human; details: CCD841, N, Non-transformed fibroblast
Experimental: as §1, §2, §3, §4, §5, §6

SW1271 = experiment: Resazurin viability, 5 days; format: cell-based, human; details: SW1271, C, Small cell lung carcinoma
Experimental: as §1, §2, §3, §4, §5, §6

SaOS2 = experiment: Resazurin viability, 5 days; format: cell-based, human; details: SaOS2, C, Osteosarcoma
Experimental: as §1, §2, §3, §4, §5, §6

H460 = experiment: Resazurin viability, 5 days; format: cell-based, human; details: H460, C, Large cell lung carcinoma
Experimental: as §1, §2, §3, §4, §5, §6

PL-21 = experiment: Resazurin viability, 5 days; format: cell-based, human; details: PL-21, C, Acute myeloid leukemia
Experimental: as §1, §2, §3, §4, §5, §6

MCF7 = experiment: Resazurin viability, 5 days; format: cell-based, human; details: MCF7, C, Breast adenocarcinoma
Experimental: as §1, §2, §3, §4, §5, §6

K562 = experiment: Resazurin viability, 5 days; format: cell-based, human; details: K562, C, Chronic myelogenous leukemia
Experimental: as §1, §2, §3, §4, §5, §6

Hec59 = experiment: Resazurin viability, 5 days; format: cell-based, human; details: Hec59, C, Endometrioid adenocarcinoma
Experimental: as §1, §2, §3, §4, §5, §6

DU145 = experiment: Resazurin viability, 5 days; format: cell-based, human; details: DU145, C, Prostate carcinoma
Experimental: as §1, §2, §3, §4, §5, §6

PC3 = experiment: Resazurin viability, 5 days; format: cell-based, human; details: PC3, C, Prostate adenocarcinoma
Experimental: as §1, §2, §3, §4, §5, §6

M059K = experiment: Resazurin viability, 5 days; format: cell-based, human; details: C, Glioblastoma
Experimental: as §1, §2, §3, §4, §5, §6

HL-60 = experiment: Resazurin viability, 5 days; format: cell-based, human; details: HL-60, C, Acute promyelocytic leukemia
Experimental: as §1, §2, §3, §4, §5, §6

U2OS = experiment: Resazurin viability, 5 days; format: cell-based, human; details: C, Osteosarcoma
Experimental: as §1, §2, §3, §4, §5, §6

THP1 = experiment: Resazurin viability, 5 days; format: cell-based, human; details: THP1, C, Acute monocytic leukemia
Experimental: as §1, §2, §3, §4, §5, §6, §7
THP1 C Acute monocytic leukemia 17.8 4 19.2 2

CCRF-CEM = experiment: Resazurin viability, 5 days; format: cell-based, human; details: C, T-cell acute lymphoblastic leukemia
Experimental: as §1, §2, §3, §4, §5, §6
transformed (µM) (µM) (µM)
A3 C T-cell acute lymphoblastic leukemia 10.0 12 7.9 7 9.8 5 […]
CCRF-CEM C T-cell acute lymphoblastic leukemia 13.0 5 10.5 2 7.9 2 […]

Compound: O=C(Nc1ccc(I)cc1)N1CCC(n2c(=O)[nH]c3c(Br)cccc32)CC1 [TH5487]
OGG1 target engagement in xenograft tumor (CETSA) (OGG1 enzyme): unable to demonstrate OGG1 target engagement
EC50 (NB-4): 4.8 µM
EC50 (Hec59+Chr2): 15.7 µM
EC50 (T98G): 14.5 µM
EC50 (HCT116+Chr3): 20.6 µM
EC50 (CCD841): 43.3 µM
EC50 (SW1271): 22 µM
EC50 (SaOS2): 21.4 µM
EC50 (H460): 10.1 µM
EC50 (PL-21): 20.6 µM
EC50 (MCF7): 23.3 µM
EC50 (K562): 16.7 µM
EC50 (Hec59): 17 µM
EC50 (DU145): 13.2 µM
EC50 (PC3): 32.6 µM
EC50 (M059K): 20.3 µM
EC50 (HL-60): 15.9 µM
EC50 (U2OS): 19.5 µM
EC50 (THP1): 17.8 µM
EC50 (CCRF-CEM): 13 µM

EC50 (HCT116+Chr3; Homo sapiens, 120 h): 16.7 µM
EC50 (SW1271; Homo sapiens, 120 h): 24.6 µM
EC50 (H460; Homo sapiens, NCI-H460, 120 h): 14.4 µM
EC50 (MCF7; Homo sapiens, 120 h): 26.5 µM
EC50 (K562; Homo sapiens, 120 h): 21 µM
EC50 (DU145; Homo sapiens, DU-145, 120 h): 10.7 µM
EC50 (PC3; Homo sapiens, PC-3, 120 h): 19.3 µM
EC50 (HL-60; Homo sapiens, 120 h): 14.4 µM
EC50 (U2OS; Homo sapiens, 120 h): 16.1 µM
EC50 (THP1; Homo sapiens, THP-1, 120 h): 19.2 µM
EC50 (CCRF-CEM; Homo sapiens, 120 h): 10.5 µM
Compound: O=C(Nc1ccc(Cl)c(Cl)c1)N1CCC(n2c(=O)[nH]c3c(-c4ccc(CO)nc4)cccc32)CC1 [TH5796, N-(3,4-Dichlorophenyl)-4-[4-[6-(hydroxymethyl)-3-pyridyl]-2-oxo-3H-benzimidazol-1-yl]piperidine-1-carbox amide]
EC50 (NB-4; Homo sapiens, 120 h): 11.5 µM
EC50 (Hec59+Chr2; Homo sapiens, 120 h): 17.3 µM
EC50 (T98G; Homo sapiens, 120 h): 18.5 µM
EC50 (CCD841; Homo sapiens, CCD-841, 120 h): 39.7 µM
EC50 (SaOS2; Homo sapiens, SAOS-2, 120 h): 16.2 µM
EC50 (PL-21; Homo sapiens, 120 h): 10.2 µM
EC50 (Hec59; Homo sapiens, 120 h): 11.5 µM
EC50 (M059K; Homo sapiens, 120 h): 19.4 µM

EC50 (HCT116+Chr3; Homo sapiens, 120 h): 20.3 µM
EC50 (H460; Homo sapiens, NCI-H460, 120 h): 16.5 µM
EC50 (DU145; Homo sapiens, DU-145, 120 h): 3.1 µM
EC50 (PC3; Homo sapiens, PC-3, 120 h): 28.7 µM
EC50 (HL-60; Homo sapiens, 120 h): 23.9 µM
EC50 (U2OS; Homo sapiens, 120 h): 25.1 µM
EC50 (CCRF-CEM; Homo sapiens, 120 h): 7.9 µM
Compound: Cc1cc(NC(=O)N2CCC(n3c(=O)[nH]c4c(Br)cccc43)CC2)ccc1I [TH6943, 4-(4-Bromo-2-oxo-3H-benzimidazol-1-yl)-N-(4-iodo-3-methyl-phenyl)piperidine-1-carboxamide]
EC50 (T98G; Homo sapiens, 120 h): 16.7 µM
EC50 (CCD841; Homo sapiens, CCD-841, 120 h): 54.2 µM
EC50 (SaOS2; Homo sapiens, SAOS-2, 120 h): 19.8 µM
EC50 (PL-21; Homo sapiens, 120 h): 18.4 µM
EC50 (M059K; Homo sapiens, 120 h): 27 µM
